Laboratory results taken from publication doi:10.1101/2025.01.28.635346v1 (bioRxiv, 2025).
Bridge positions count the residues as written; N and C are the ends. Side chains are listed from the residue outwards. Peptide text beside a SMILES is read from it. * marks the point of attachment. Butanoyl(4-(4-I-phenyl)) = O=C(CCCc1ccc(I)cc1)*; PEG2 = NCCOCCOCCC(=O)O

Legend:
[1] = biological target: integrin αvβ8 (Homo sapiens, UniProt P06756+P26012); assay: ELISA competition assay, integrin αvβ8 binding to LAP
[2] = biological target: T1, AR (Homo sapiens, UniProt P10275); assay: Safetyscan47 NHR Nuclear Translocation, Antagonist; format: cell-based; conditions: for Emax: read-out: Max Response
T1 sequence (P10275 1-920): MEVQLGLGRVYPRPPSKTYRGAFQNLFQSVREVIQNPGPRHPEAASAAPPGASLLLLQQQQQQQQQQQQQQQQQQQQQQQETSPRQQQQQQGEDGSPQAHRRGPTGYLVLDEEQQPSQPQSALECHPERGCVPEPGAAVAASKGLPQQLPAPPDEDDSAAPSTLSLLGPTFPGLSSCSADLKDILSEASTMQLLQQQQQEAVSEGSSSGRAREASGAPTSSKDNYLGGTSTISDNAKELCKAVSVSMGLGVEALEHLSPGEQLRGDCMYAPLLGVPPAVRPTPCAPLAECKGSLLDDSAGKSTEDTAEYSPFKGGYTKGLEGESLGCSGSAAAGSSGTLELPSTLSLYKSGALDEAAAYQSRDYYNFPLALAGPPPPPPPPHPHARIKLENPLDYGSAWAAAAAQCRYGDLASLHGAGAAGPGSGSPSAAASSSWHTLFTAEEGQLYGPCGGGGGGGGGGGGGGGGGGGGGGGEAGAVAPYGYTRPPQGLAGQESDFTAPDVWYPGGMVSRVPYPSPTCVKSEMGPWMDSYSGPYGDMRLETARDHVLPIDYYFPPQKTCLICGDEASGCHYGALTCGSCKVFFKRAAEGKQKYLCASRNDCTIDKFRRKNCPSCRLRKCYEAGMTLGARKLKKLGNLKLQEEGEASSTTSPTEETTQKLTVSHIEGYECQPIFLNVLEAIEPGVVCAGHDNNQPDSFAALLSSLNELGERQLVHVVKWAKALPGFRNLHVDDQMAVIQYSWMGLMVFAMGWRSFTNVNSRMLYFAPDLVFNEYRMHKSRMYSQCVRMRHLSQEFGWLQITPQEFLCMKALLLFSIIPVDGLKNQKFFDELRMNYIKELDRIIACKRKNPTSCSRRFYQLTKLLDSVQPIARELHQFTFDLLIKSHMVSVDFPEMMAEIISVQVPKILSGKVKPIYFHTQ

[3] = biological target: T2, HTR3A (Homo sapiens, UniProt P46098); assay: Safetyscan47 Ion Channel, Blocker; format: cell-based; conditions: for Emax: read-out: Max Response
T2 sequence (P46098 24-478): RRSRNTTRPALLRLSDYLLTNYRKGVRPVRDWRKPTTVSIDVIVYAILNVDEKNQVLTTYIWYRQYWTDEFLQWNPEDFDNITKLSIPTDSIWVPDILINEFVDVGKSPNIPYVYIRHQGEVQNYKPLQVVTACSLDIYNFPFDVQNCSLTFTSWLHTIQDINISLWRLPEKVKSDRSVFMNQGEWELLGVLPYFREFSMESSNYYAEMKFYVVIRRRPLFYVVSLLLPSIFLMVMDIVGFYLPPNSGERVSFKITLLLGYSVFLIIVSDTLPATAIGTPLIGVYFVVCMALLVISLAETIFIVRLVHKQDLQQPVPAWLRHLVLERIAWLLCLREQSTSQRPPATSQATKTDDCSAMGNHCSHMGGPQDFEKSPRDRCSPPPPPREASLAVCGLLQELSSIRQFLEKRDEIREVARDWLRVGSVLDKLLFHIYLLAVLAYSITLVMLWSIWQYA

[4] = biological target: OPRK1 (Homo sapiens, UniProt P41145); assay: Safetyscan47 GPCR cAMP, Antagonist; format: cell-based; conditions: for Emax: read-out: Max Response
[5] = biological target: T3, CCKAR (Homo sapiens, UniProt P32238); assay: Safetyscan47 GPCR Calcium Flux, Agonist; format: cell-based; conditions: for Emax: read-out: Max Response
T3 sequence (P32238 1-428): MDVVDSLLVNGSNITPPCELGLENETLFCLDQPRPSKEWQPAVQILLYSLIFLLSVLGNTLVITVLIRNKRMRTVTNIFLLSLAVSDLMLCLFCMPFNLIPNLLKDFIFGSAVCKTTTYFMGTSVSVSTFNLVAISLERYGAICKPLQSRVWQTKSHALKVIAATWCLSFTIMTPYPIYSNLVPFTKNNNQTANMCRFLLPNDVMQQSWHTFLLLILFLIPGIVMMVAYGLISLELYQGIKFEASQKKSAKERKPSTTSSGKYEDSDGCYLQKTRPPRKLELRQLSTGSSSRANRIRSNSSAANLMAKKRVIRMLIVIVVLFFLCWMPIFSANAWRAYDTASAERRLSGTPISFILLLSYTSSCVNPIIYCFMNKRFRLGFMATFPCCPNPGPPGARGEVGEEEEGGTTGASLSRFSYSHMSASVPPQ

[6] = biological target: OPRM1 (Homo sapiens, UniProt P35372); assay: Safetyscan47 GPCR cAMP, Agonist; format: cell-based; conditions: for Emax: OPRM1, read-out: Max Response
[7] = biological target: ADRB2 (Homo sapiens, UniProt P07550); assay: Safetyscan47 GPCR cAMP, Agonist; format: cell-based; conditions: for Emax: read-out: Max Response
[8] = biological target: HTR2B (Homo sapiens, UniProt P41595); assay: Safetyscan47 GPCR Calcium Flux, Antagonist; format: cell-based; conditions: for Emax: read-out: Max Response
[9] = biological target: integrin α8β1 (Homo sapiens, UniProt P05556+P53708); assay: ELISA competition assay, integrin α8β1; format: binding
[10] = biological target: integrin αvβ6 (Homo sapiens, UniProt P06756+P18564); assay: ELISA competition assay, integrin αvβ6 binding to LAP; conditions: αvβ6 IC50, ELISA competition vs LAP; mean, n ≥ 3

SMILES	IC50 [1] [µM]	IC50 [2] [µM]	Emax [2] [%]	IC50 [3] [µM]	Emax [3] [%]	IC50 [4] [µM]	Emax [4] [%]	EC50 [5] [µM]	Emax [5] [%]	EC50 [6] [µM]	Emax [6] [%]	EC50 [7] [µM]	Emax [7] [%]	IC50 [8] [µM]	Emax [8] [%]	IC50 [9] [µM]	IC50 [10] [µM]
CC[C@H](C)[C@H](NC(=O)[C@H](CC(C)C)NC(=O)[C@H](CC(=O)O)NC(=O)CNC(=O)[C@H](CCCNC(=N)N)NC(=O)[C@@H](NC(=O)[C@H](Cc1ccccc1)NC(=O)[C@H](Cc1ccc(O)cc1)NC(=O)[C@@H]1CCC(=O)NCC(=O)NCC(=O)N[C@@H](CCCNC(=N)N)C(=O)NCC(=O)N[C@@H](Cc2c[nH]cn2)C(=O)N[C@@H](C(C)C)C(=O)N2CCC[C@H]2C(=O)N1)C(C)C)C(=O)N[C@@H](CO)C(=O)N[C@@H](Cc1ccccc1)C(=O)N[C@@H](Cc1ccc(O)cc1)C(=O)N[C@@H](CCCCN)C(=O)O [lassotide 36] (GGRGHVPEYFVRGDLISFYK-OH; lactam N-8)	0.015	> 45	0	> 45	8.73	> 45	0	> 45	4.58	> 45	3.7	> 45	0	> 45	11.8	3.89	0.012
CC[C@H](C)[C@H](NC(=O)[C@H](CC(C)C)NC(=O)[C@H](CC(=O)O)NC(=O)CNC(=O)[C@H](CCCNC(=N)N)NC(=O)[C@@H](NC(=O)[C@H](Cc1ccccc1)NC(=O)[C@H](Cc1ccc(O)cc1)NC(=O)[C@@H]1CCC(=O)NCC(=O)NCC(=O)N[C@@H](CCCNC(=N)N)C(=O)NCC(=O)N[C@@H](Cc2c[nH]cn2)C(=O)N[C@@H](C(C)C)C(=O)N2CCC[C@H]2C(=O)N1)C(C)C)C(=O)N[C@@H](CO)C(=O)N[C@@H](Cc1ccccc1)C(=O)N[C@@H](Cc1ccc(O)cc1)C(=O)N[C@@H](CCCCNC(=O)CCOCCOCCNC(=O)CCCc1ccc(I)cc1)C(=O)O [lassotide 47] (GGRGHVPEYFVRGDLISFYK([PEG2-Butanoyl(4-(4-I-phenyl))])-OH; lactam N-8)	0.0079	> 45	0	> 45	9.38	> 45	0	> 45	0	> 45	18.4	> 45	0	> 45	13.4	> 10	0.0032
